Here are results for six compounds from ChEMBL document CHEMBL1201862, “PubChem BioAssay data set” (2004).

Assay [1] deals with Luciferin 4-monooxygenase (Photinus pyralis, UniProt P08659). Briefly: inhibition of purified Photinus pyralis luciferase – biochemical, luminescence, dose response (AID 1891).
Assay [2] in a line: Luminescence Cell-Based Dose Confirmation HTS to Identify Inhibitors of Platelet Dense Granule Release. [Related pubchem assays: 1663 (Primary HTS), 1678 (Summary of Project)]. The format is functional.
Assay [3] can be described thus: PAR1 agonist-induced platelet activation inhibition – cell-based, fluorescence, flow cytometry, human platelets, dose response (AID 2511). The format is functional.
Assay [4] in a line: Luminescence Cell-Based Dose Response Follow up to Identify Inhibitors of Platelet Dense Granule Release. [Related pubchem assays (depositor defined):AID1663, AID1678, AID1889, AID2519]. The class given is functional.
Assay [5] relates to HEK293. Briefly: cells. As to conditions: Homo sapiens. The format is functional, cell-based.
Assay [6] concerns the target Nuclear receptor subfamily 0 group B member 1 (Homo sapiens, UniProt P51843). Briefly: Luminescence-based cell-based high throughput dose response assay for inhibitors of the orphan nuclear receptor subfamily 0, group B, member 1 (DAX1; NR0B1). [Related pubchem assays (depositor defined):AID504766, AID504790]. The format is functional.
For assay [7], the target named is Voltage-gated inwardly rectifying potassium channel KCNH2 (Homo sapiens, UniProt Q12809). The settings on record: Potency.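 Also: confirmatory quantitative high-throughput screen measuring inhibition of hERG channel activity.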
Voltage-gated inwardly rectifying potassium channel KCNH2, sequence (Q12809 whole entry): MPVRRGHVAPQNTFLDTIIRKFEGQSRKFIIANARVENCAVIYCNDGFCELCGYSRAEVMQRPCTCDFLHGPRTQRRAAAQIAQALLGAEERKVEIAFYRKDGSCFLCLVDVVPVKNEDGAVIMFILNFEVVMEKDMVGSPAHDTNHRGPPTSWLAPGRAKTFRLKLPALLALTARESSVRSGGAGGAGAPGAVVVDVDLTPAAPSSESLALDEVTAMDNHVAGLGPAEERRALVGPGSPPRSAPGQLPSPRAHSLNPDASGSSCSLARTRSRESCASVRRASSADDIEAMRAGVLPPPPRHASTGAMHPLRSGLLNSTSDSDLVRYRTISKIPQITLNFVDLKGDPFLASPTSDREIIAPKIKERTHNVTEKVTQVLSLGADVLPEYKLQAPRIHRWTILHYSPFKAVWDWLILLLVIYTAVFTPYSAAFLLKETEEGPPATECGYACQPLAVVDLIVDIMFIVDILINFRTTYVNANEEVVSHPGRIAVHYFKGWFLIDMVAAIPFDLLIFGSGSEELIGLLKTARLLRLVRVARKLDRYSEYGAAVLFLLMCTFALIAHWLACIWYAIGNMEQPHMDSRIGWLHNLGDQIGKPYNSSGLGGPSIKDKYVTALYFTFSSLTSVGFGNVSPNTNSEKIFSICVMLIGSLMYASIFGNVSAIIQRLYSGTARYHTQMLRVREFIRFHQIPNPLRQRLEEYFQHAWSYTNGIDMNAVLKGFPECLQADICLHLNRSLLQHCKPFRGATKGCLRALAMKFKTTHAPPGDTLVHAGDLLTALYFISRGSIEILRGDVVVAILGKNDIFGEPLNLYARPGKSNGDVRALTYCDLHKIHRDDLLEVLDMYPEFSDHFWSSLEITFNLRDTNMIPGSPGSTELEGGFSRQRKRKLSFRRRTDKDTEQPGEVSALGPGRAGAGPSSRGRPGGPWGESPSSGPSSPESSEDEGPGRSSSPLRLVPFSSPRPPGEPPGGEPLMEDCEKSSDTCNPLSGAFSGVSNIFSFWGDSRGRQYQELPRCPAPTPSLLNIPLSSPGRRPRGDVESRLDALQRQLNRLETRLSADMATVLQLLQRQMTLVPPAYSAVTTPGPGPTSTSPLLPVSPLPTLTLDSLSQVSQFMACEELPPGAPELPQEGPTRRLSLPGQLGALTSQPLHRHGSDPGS
The target in assay [8] is T1, Tyrosine-protein phosphatase non-receptor type 7 (Homo sapiens, UniProt P35236).
T1 sequence (P35236 whole entry): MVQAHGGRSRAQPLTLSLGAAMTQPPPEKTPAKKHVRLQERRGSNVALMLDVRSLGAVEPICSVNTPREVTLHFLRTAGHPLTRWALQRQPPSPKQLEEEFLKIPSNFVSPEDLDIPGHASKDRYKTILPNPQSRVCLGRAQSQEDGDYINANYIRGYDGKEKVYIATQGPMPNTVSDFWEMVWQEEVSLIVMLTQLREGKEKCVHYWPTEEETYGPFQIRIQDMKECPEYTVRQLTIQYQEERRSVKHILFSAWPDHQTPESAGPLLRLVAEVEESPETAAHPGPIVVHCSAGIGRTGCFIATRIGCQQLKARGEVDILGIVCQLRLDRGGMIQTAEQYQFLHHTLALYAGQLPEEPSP
The format is functional.

The target of assay [9] is Glyceraldehyde-3-phosphate dehydrogenase (Homo sapiens, UniProt P04406).
Glyceraldehyde-3-phosphate dehydrogenase, sequence (P04406 whole entry): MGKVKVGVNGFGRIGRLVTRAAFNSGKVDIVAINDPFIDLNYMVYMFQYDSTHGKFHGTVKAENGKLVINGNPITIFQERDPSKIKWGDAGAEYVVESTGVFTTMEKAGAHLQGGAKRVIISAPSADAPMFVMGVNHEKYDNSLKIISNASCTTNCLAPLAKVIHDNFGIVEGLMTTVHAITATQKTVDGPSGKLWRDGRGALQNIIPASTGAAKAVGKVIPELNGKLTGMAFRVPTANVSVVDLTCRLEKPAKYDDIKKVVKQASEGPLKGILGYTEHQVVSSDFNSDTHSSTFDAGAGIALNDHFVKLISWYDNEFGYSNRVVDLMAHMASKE
Assay [10] addresses T2, Dual specificity protein phosphatase 6 (Rattus norvegicus, UniProt Q64346).
T2 sequence (Q64346 whole entry): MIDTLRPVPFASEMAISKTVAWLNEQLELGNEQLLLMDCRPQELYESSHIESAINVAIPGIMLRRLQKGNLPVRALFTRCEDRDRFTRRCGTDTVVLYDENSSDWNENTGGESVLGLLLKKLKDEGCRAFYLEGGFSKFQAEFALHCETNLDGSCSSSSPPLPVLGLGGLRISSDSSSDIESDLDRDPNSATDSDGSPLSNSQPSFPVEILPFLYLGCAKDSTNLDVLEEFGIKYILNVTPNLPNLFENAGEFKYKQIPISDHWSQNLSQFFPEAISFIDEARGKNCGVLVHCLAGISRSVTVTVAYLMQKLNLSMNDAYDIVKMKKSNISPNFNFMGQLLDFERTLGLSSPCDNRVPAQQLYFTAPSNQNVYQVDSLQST

Assay [11] addresses T2, Dual specificity protein phosphatase 6. The format is functional.
Assay [12] addresses Sphingosine 1-phosphate receptor 2 (Homo sapiens, UniProt O95136). Nature of the assay: Dose Response Cell Based Assay for Antagonists of the S1P2 Receptor. [Related pubchem assays: 856, 736 ]. The class given is functional.
Assay [13] is described as follows: viability of PTEN-deleted HCT116 cells – cell-based, HCT116 PTEN knockout, dose response (AID 1047).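 Also: HCT116 colon tumor cells with PTEN knocked out; cells exposed to compound for 60 hours before readout; potency for loss of cell viability measured by luminescence.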 The class given is functional.
Assay [14] can be described thus: viability of HCT116 lacking mutant beta-catenin – cell-based, human colon tumor, dose response (AID 1045).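 Also: HCT116 colon tumor cells with beta catenin knocked out; cells exposed to compound for 60 hours.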 The class given is functional.
In assay [15] the target is T3, Mannose-6-phosphate isomerase (Homo sapiens, UniProt P34949).
T3 sequence (P34949 whole entry): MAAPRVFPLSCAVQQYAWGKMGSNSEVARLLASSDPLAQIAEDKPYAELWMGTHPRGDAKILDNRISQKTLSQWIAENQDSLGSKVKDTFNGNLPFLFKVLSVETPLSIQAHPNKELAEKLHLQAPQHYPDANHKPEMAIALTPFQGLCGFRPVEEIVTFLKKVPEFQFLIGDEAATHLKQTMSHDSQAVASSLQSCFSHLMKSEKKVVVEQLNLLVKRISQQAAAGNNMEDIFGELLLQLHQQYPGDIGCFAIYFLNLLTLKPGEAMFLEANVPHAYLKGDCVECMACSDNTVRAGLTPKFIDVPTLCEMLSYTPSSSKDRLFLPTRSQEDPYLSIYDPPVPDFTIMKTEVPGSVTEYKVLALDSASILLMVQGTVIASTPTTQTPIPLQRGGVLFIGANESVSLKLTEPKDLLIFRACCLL
Briefly: MPI inhibition at elevated mannose 6-phosphate – biochemical, fluorescence intensity, high mannose 6-phosphate, primary screen (AID 1220).

Assay [16] is described as follows: THP-1 cell cytotoxicity, dose response, cytotoxicity control for non-replicating M. tuberculosis project (AID 489025). The format is functional.
Assay [17] in a line: Vero E6 cell cytotoxicity, dose response, cytotoxicity control for non-replicating M. tuberculosis project, secondary assay (AID 492998). The class given is functional, VeroE6. The settings on record: Vero C1008.
A short description of assay [18]: cells. The class given is functional.
For assay [19], the target named is Heat shock protein HSP 90-alpha (Homo sapiens, UniProt P07900). The class given is functional, organism-based.
The target of assay [20] is T4, High affinity choline transporter 1 (Homo sapiens, UniProt Q9GZV3).
T4 sequence (Q9GZV3 whole entry): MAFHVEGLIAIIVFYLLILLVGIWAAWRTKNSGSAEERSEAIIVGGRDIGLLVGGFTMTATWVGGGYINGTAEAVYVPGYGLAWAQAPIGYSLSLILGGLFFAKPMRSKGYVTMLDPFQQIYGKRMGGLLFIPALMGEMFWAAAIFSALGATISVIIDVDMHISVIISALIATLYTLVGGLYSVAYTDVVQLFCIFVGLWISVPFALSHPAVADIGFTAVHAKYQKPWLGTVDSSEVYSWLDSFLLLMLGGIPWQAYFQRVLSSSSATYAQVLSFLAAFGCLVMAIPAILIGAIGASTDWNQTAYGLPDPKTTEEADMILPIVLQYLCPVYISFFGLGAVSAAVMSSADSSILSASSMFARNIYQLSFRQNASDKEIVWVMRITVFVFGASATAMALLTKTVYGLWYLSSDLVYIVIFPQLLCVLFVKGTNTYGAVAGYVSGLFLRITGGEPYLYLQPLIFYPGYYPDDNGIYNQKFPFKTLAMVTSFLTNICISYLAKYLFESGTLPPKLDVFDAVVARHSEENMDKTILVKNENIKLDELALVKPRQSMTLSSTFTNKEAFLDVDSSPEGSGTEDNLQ
Nature of the assay: human choline transporter blockers, potency – cell-based, 5-point CRC, membrane potential dye, dose response (AID 504840). The class given is functional.

Assay [21] has as its target Delta-type opioid receptor (Homo sapiens, UniProt P41143). Briefly: Counterscreen for agonists of heterodimerization of the mu 1 (OPRM1) and delta 1 (OPRD1) opioid receptors: Luminescence-based cell-based high throughput dose response assay to identify agonists of OPRD1 homodimerization. [Related pubchem assays (depositor defined):AID504326, AID504355, AID504692, AID504904, AID504905]. The format is functional.

Assay [22] has as its target Mu-type opioid receptor (Homo sapiens, UniProt P35372). Nature of the assay: Counterscreen for agonists of heterodimerization of the mu 1 (OPRM1) and delta 1 (OPRD1) opioid receptors: Luminescence-based cell-based high throughput dose response assay to identify agonists of OPRM1 homodimerization. The format is functional.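 Also: U2OS cells expressing OPRM1 and beta-arrestin as split beta-galactosidase partners.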
The target of assay [23] is 5-hydroxytryptamine receptor 5A (Homo sapiens, UniProt P47898). Nature of the assay: Counterscreen for agonists of OPRM1-OPRD1 heterodimerization: luminescence-based cell-based high throughput dose response assay to identify agonists of 5-hydroxytryptamine (serotonin) 5A receptor (HTR5A). [Related pubchem assays (depositor defined):AID504326, AID504355, AID504692, AID504904, AID504905]. The class given is functional.
5-hydroxytryptamine receptor 5A, sequence (P47898 whole entry): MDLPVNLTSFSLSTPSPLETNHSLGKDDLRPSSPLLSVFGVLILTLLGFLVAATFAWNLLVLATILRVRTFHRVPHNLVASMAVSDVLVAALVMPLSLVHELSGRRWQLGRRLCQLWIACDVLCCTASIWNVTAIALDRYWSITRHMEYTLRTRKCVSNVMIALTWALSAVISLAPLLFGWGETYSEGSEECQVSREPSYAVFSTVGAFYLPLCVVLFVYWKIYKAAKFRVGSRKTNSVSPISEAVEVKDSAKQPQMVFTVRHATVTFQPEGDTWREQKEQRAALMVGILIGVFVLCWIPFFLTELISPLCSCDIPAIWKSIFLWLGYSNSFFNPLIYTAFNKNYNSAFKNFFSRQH

Assay [24] relates to INS1. Nature of the assay: INS-1E survival protection against cytokine death – cell-based, luminescence, retest, dose response (AID 449756).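 Also: cell death triggered by IL-1 beta plus TNF-alpha plus IFN-gamma mixture; protective hits raise ATP signal compared with cytokine alone wells.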 As to conditions: Rattus norvegicus. The class given is functional.
Assay [25] has as its target Induced myeloid leukemia cell differentiation protein Mcl-1 (Homo sapiens, UniProt Q07820). The class given is functional.
For assay [26], the target named is Glucose-6-phosphate 1-dehydrogenase (Homo sapiens, UniProt P11413). Briefly: inhibition of Homo sapiens G6PD, dose series – biochemical, fluorescence, selectivity assay for P. falciparum G6PD inhibitor project, dose response (AID 504792). The format is functional.
Glucose-6-phosphate 1-dehydrogenase, sequence (P11413 whole entry): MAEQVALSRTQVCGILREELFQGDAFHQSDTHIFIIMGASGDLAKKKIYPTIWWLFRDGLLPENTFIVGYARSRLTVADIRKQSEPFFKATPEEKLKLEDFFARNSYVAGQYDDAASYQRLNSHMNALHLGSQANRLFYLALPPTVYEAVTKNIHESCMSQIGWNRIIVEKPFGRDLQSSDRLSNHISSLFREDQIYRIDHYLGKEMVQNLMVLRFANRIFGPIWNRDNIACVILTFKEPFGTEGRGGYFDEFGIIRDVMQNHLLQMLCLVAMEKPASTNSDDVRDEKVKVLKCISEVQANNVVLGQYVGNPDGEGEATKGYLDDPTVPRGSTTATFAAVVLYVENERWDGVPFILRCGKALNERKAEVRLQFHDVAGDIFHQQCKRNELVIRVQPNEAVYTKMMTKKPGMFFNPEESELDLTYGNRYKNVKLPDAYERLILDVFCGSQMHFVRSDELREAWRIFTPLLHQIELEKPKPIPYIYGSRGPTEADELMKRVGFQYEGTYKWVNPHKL
The target of assay [27] is Eukaryotic translation initiation factor 4E (Mus musculus, UniProt P63073). Briefly: blockers of eIF4G binding by eIF4E – biochemical, TR-FRET, dose response (AID 855).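 Also: potency for disrupting eIF4E binding to eIF4GI seen as loss of FRET.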 The format is functional.
Eukaryotic translation initiation factor 4E, sequence (P63073 whole entry): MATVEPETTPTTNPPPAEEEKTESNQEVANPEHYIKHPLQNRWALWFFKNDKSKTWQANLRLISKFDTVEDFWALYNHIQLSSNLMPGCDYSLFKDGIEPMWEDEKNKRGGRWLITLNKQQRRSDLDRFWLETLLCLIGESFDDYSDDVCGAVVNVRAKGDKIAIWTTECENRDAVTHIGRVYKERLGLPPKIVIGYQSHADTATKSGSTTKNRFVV
The target of assay [28] is UDP-galactopyranose mutase (Mycobacterium tuberculosis, UniProt P9WIQ1). Briefly: Inhibitors of Mycobacterium tuberculosis UDP-galactopyranose mutase (UGM) enzyme Measured in Biochemical System Using Plate Reader - 2105-02_Inhibitor_Dose_CherryPick_Activity. [Related pubchem assays (depositor defined):AID504439].
Assay [29] addresses T5, Long-chain-fatty-acid--AMP ligase FadD28 (Mycobacterium tuberculosis, UniProt P9WQ59).
T5 sequence (P9WQ59 whole entry): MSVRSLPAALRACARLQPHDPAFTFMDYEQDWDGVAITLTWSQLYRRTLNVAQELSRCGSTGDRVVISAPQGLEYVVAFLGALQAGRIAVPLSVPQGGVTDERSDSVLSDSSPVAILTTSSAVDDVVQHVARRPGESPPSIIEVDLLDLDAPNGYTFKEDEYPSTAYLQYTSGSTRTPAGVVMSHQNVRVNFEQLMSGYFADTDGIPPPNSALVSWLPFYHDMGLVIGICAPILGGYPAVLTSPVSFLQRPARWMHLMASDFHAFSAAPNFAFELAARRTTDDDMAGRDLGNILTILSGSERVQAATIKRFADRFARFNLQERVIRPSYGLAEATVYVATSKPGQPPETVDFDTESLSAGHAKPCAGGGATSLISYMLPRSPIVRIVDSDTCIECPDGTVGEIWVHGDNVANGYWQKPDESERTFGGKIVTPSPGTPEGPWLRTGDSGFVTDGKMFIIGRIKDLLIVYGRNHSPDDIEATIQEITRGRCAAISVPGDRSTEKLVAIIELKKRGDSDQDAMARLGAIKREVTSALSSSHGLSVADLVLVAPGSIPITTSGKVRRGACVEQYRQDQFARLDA
Briefly: Fluorescence polarization aasay to screen for inhibitors that compete for the binding of FadD28 to a bisubstrate Measured in Biochemical System Using Plate Reader - 2147-01_Inhibitor_Dose_CherryPick_Activity. The class given is functional, Mycobacterium tuberculosis H37Rv.

A short description of assay [30]: viability loss in THP-1 monocytes – THP-1 cells, cytotoxicity control for Vif-APOBEC3G degradation inhibitor project, dose response (AID 1117359). The class given is functional. As to conditions: THP-1.

Activity calls are given as the source filed them.

Delta-type opioid receptor, sequence (P41143 whole entry): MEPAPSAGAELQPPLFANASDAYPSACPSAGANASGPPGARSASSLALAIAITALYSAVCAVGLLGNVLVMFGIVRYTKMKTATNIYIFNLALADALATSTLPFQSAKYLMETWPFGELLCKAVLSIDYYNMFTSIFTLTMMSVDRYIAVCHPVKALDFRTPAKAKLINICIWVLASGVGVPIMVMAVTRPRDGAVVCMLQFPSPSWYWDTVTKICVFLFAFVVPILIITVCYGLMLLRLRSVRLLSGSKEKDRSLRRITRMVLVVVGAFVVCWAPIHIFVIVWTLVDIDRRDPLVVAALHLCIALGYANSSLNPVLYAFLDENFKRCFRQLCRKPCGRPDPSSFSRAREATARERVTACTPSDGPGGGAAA
Sphingosine 1-phosphate receptor 2, sequence (O95136 whole entry): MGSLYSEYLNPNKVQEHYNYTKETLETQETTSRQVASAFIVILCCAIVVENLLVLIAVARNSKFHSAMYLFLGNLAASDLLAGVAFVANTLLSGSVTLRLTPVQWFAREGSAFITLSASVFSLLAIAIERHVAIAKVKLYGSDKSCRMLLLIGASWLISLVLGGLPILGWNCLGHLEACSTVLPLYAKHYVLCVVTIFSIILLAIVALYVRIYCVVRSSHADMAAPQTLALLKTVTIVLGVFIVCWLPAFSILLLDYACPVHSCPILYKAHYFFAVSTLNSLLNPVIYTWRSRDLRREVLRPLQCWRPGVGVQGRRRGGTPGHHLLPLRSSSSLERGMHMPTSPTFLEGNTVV
Mu-type opioid receptor, sequence (P35372 whole entry): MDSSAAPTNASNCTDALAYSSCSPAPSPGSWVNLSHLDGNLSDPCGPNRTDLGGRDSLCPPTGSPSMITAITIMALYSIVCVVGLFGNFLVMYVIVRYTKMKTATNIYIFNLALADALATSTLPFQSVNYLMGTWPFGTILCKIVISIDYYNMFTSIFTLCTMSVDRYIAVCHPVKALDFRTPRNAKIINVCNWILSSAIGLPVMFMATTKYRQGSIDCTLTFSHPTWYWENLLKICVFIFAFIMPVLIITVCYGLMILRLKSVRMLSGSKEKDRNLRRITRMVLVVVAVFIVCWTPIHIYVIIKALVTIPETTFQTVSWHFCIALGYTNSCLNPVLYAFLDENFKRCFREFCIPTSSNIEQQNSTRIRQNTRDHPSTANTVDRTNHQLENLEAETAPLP
Luciferin 4-monooxygenase, sequence (P08659 whole entry): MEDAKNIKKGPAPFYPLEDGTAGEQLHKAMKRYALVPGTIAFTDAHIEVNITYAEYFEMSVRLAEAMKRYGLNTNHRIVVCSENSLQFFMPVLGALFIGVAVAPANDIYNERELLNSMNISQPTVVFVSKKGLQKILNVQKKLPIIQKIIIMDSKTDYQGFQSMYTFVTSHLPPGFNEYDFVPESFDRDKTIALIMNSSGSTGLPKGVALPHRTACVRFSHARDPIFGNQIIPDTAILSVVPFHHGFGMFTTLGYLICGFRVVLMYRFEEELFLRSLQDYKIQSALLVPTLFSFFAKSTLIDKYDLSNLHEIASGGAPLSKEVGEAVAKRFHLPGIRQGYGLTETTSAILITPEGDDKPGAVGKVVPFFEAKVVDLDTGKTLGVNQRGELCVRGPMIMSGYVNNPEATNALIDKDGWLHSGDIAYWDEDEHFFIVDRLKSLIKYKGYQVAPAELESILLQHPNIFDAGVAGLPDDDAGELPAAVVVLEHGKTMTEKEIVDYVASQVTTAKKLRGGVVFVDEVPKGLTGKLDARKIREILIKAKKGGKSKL
Nuclear receptor subfamily 0 group B member 1, sequence (P51843 whole entry): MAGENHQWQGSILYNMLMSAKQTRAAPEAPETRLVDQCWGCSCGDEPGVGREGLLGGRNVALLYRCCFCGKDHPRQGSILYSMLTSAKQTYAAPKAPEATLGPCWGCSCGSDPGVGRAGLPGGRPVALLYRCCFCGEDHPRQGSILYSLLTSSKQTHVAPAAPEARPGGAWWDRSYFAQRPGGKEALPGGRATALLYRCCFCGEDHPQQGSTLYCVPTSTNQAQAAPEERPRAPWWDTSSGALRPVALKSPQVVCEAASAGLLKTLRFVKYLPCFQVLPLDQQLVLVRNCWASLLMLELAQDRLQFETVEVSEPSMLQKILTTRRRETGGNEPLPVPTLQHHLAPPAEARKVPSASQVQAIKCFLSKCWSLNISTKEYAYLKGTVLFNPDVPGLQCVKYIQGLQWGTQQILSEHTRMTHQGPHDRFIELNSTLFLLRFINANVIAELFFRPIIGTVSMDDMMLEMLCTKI

On to `CCCCC(=O)Nc1cccc(NC(=O)c2ccccc2Br)c1`, for which the EC50 in assay [1] was > 112 µM (not active); in [2], 6.9 µM (active); in [3], < 3 µM (active); in assay [4], 500 µM (inactive).
As to `COc1ccc(-c2csc(Nc3cccc(C)n3)n2)cc1`, the IC50 in assay [5] and in assay [6] was > 67.5 µM (inactive) each time.
Take `CCN(CC)C(=O)N[C@@H]1C[C@@H]2c3cccc4[nH]cc(c34)C[C@H]2N(C)C1`: in assay [7], the AC50 was 25.1 µM (inconclusive).
`Cc1ccccc1Cn1c(=O)n(-c2ccccc2)c(=O)n([C@H](C(=O)O)C(C)C)c1=O`: the IC50 in assay [8] was > 100 µM (not active); in assay [9], > 100 µM (not active); in assay [10] it was > 100 µM (inactive); in assay [11] it was > 100 µM (inactive).
As to `CC1=C/C(=N\OS(=O)(=O)c2ccccc2)C(C)=CC1=O`, the IC50 is 3.71 µM (active) in assay [12], 3.73 µM (active) in [15], 3.09 µM (active) in assay [18] and 12.3 µM (active) in [20]. Further, the EC50 in assay [13] was 14.5 µM (active); in assay [14], 16.4 µM (active); in assay [21], > 92.5 µM (inactive); in assay [22] it was > 92.5 µM (inactive); in [23] it was > 92.5 µM (inactive). The CC50 in [16] was 12 µM (active); in assay [17], 15.6 µM (active). Moreover, the results for the AC50 in [19] and in assay [24] were 0.554 µM (active) and 1.17 µM (active), respectively.
As for `COc1cc(/C=C2\CC/C(=C\c3cc(OC)c(O)c(OC)c3)C2=O)cc(OC)c1O`, the IC50 in assay [25] was 5.75 µM (active); in [15], 24.7 µM (active); in assay [26], > 80 µM (inactive); in [27] it was > 64 µM (inactive). In addition, the values for the AC50 in [28], in assay [24] and in [29] were 8.22 µM (active), 4.41 µM (active) and 86.6 µM (active), respectively. Moreover, the CC50 in assay [30] was 3.3 µM (active).
